{"source": "paper PMC3365763", "about": "(The Journal of Biological Chemistry, 2012)", "type_in_all_cases": "biochemical", "key": {"[1]": {"biological_target": "T1, TG2 (transglutaminase-2, transglutaminase type 2) (Homo sapiens, UniProt P21980, R28S)", "T1 sequence (P21980 1-687 R28S)": "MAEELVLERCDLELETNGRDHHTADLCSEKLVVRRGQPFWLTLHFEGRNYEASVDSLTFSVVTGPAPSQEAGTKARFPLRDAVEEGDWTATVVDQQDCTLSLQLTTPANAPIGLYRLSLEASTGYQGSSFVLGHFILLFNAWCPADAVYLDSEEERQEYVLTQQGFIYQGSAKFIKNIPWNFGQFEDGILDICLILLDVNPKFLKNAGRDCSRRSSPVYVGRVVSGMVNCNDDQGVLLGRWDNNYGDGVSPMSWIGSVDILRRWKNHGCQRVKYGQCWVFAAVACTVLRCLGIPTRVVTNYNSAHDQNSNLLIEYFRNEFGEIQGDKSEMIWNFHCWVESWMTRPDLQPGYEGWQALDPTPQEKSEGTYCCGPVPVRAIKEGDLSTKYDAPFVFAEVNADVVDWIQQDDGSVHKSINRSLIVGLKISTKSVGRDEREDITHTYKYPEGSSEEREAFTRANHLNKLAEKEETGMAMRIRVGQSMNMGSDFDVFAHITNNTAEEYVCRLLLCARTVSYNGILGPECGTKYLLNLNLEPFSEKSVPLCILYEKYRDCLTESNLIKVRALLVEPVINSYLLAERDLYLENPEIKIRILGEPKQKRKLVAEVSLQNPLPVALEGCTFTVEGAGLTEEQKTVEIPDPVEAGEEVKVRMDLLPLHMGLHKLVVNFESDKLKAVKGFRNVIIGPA"}, "[2]": {"biological_target": "T2, TG2 (transglutaminase-2, transglutaminase type 2) (Homo sapiens, UniProt P21980, K634S)", "T2 sequence (P21980 1-687 K634S)": "T1 sequence (P21980 1-687 R28S) with S28R, K634S"}, "[3]": {"biological_target": "T3, TG2 (transglutaminase-2, transglutaminase type 2) (Homo sapiens, UniProt P21980, R19S)", "T3 sequence (P21980 1-687 R19S)": "T1 sequence (P21980 1-687 R28S) with R19S, S28R"}, "[4]": {"biological_target": "T4, TG2 (transglutaminase-2, transglutaminase type 2) (Homo sapiens, UniProt P21980, K598S/K600S/K602S/R601S)", "T4 sequence (P21980 1-687 K598S/K600S/R601S/K602S)": "T1 sequence (P21980 1-687 R28S) with S28R, K598S, K600S, R601S, K602S"}}, "note": "Residue numbers refer to the chain shown, from its start."}
{"smiles": "Nc1nc2c(ncn2[C@@H]2O[C@H](COP(=O)(O)OP(=O)(O)OP(=O)(O)O)[C@@H](O)[C@H]2O)c(=O)[nH]1", "note": "[GTP]", "values": [{"measurement": "IC50", "setting": "[1]", "value": "64 ± 27", "unit": "µM"}, {"measurement": "IC50", "setting": "[2]", "value": "199 ± 36", "unit": "µM"}, {"measurement": "IC50", "setting": "[3]", "value": "254 ± 8", "unit": "µM"}, {"measurement": "IC50", "setting": "[4]", "value": "148 ± 26", "unit": "µM"}]}
